# Measurements from US8017350B2, “Glimepiride- and insulin-induced glycosylphosphatidylinositol-specific phospholipase C regulation” (Sanofi-Aventis Deutschland GmbH, priority 2004, dated 2011).
# Legend:
# rat adipocyte GPI-PLC = test: adipocyte GPI-PLC assay (plasma membranes or hc/lcDIGs, AChE substrate, TX-114 partitioning); assay type: biochemical; conditions: at the highest concentration tested, only
# Description: (§1) GPI-PLD (rat serum) was assayed according to “Hari et al. (1997) Biochim. Biophys. Acta 1355: 293-302” by incubation with 10 μl of human placental aP solution (100 U/ml in 10 mM Hepes/NaOH, pH 7.0, 150 mM NaCl) in 100 μl of 200 mM Tris/maleate (pH 7.0) and 1% Nonidet P-40 for 10 min at 37° C. and subsequent termination of the reaction by addition of 0.4 ml of ice-cold stop buffer (10 mM Hepes/NaOH, pH 7.0, 150 mM NaCl, 0.1 mM MgCl2 and 0.01 mM zinc acetate). GPI-PLC (T. brucei) was assayed as described in “Mensa-Wilmot et al. (1995) Methods Enzymol. 250: 641-655” by incubation with 5 μl of human placental aP solution (see above) in 50 μl of 50 mM Tris/HCl (pH 8.0), 0.25% Nonidet P-40 and 5 mM EDTA for 30 min at 37° C. and subsequent termination of the reaction by addition of 0.45 ml of stop buffer. PI-PLC (B. cereus) and adipocyte GPI-PLC (5-25 μg plasma membranes or hc/lcDIGs) were assayed by incubation with 10 μl of bovine erythrocyte acetylcholinesterase (AChE) solution (12 U/ml in 10 mM Tris/HCl, pH 7.4, 144 mM NaCl, 0.1% TX-100) in 100 μl of 20 mM Hepes/KOH (pH 7.8), 144 mM NaCl, 0.1% TX-100, 0.2 mM MgCl2 for 1 h at 25° C. and subsequent termination by adding 5 μl of glacial acetic acid and then 0.4 ml of 10 mM Tris/HCl (pH 7.4), 144 mM NaCl. Each reaction mixture was subjected to TX-114 partitioning (see below).
# (§2) Pelleted hc/lcDIGs (10-50 μg protein) or (G)PI-PLC reaction mixtures (0.5 ml) were separated into amphiphilic and hydrophilic proteins using partitioning between TX-114-enriched and depleted phases according to “Bordier, C., (1981) J. Biol, Chem. […]” by suspending in 1 ml of ice-cold TX-114 (1%), 25 mM Tris/HCl (pH 7.4), 144 mM NaCl or mixing with 0.5 ml of ice-cold TX-114 (2%), respectively. After incubation for 1 h on ice, the mixture was layered onto a cushion of 0.4 ml of 0.25 M sucrose and 25 mM Tris/HCl (pH 7.4) on ice. Phase separation was induced by warming up to 37° C. and subsequent centrifugation (10,000×g, 1 min). After re-extraction of the lower TX-114-enriched phase, aliquots of the pooled upper TX-114-depleted phase were measured for 5′-Nuc, aP and AChE activity or precipitated (15 polyethylene glycol 4000) for SDS-PAGE analysis.
# Table 1: GPI-PLC of hcDIGs from rat adipocytes, GPI-PLC from T. brucei and PI-PLC from B. cereus were incubated with solubilized and partially purified bovine erythrocyte AChE or human placental aP in the absence or presence of increasing concentrations (0.05 μM-1 mM) of the inhibitors indicated under appropriate conditions (see Materials and Methods). Cleavage rate was calculated from the amount of hydrophilic AChE and aP activity recovered with the TX-114-depleted phase upon TX-114 partitioning. […]
# GPI-PLC (T. brucei) = biological target: T1, GPI-PLC (T. brucei) (Trypanosoma brucei brucei, UniProt P09194); test: GPI-PLC (T. brucei) assay, human placental aP substrate, TX-114 partitioning; assay type: biochemical
# T1 construct: purchased Oxford Glycosystems (Oxford, UK)
# T1 sequence (P09194 whole entry): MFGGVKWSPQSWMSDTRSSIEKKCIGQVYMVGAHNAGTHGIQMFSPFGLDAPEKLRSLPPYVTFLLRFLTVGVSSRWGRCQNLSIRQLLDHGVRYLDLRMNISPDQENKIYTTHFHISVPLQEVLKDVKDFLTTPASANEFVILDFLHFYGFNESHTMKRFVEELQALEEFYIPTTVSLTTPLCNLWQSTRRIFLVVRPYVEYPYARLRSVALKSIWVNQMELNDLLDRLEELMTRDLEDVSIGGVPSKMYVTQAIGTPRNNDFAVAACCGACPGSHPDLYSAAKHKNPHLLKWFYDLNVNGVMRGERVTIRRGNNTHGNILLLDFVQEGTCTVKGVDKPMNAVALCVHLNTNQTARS
# Description: as §1, §2
# (§3) Table 1: GPI-PLC of hcDIGs from rat adipocytes, GPI-PLC from T. brucei and PI-PLC from B. cereus were incubated with solubilized and partially purified bovine erythrocyte AChE or human placental aP in the absence or presence of increasing concentrations (0.05 μM-1 mM) of the inhibitors indicated under appropriate conditions (see Materials and Methods). Cleavage rate was calculated from the amount of hydrophilic AChE and aP activity recovered with the TX-114-depleted phase upon TX-114 partitioning. Means+SD from at least 3 independent incubations with partitioning/enzyme assays in quadruplicate are given. n.a., not applicable.
# (§4) Purified (G)PI-PLC/D from B. cereus, rat serum and T. brucei as well as total plasma membranes (PM) and hc/lcDIGs prepared from isolated rat adipocytes were incubated (10 min, 30° C.) with increasing concentrations of GPI-2350 and then assayed for amphiphilic-to-hydrophilic conversion of AChE and aP by TX-114 partitioning (see Materials and Methods). The lipolytic activity was calculated as % of the control reaction in the absence of GPI-2350 (set at 100%). Means+SD of at least 4 independent incubations with AChE and aP activity measurements in triplicate each are given.
# PI-PLC (B. cereus) = biological target: T2, PI-PLC (B. cereus) (Bacillus cereus, UniProt P14262); test: PI-PLC (B. cereus) assay, AChE substrate, TX-114 partitioning; assay type: biochemical; conditions: read-out: inhibition % at 1 mM
# T2 construct: purchased SigmalAldrich (Deisenhofen, Germany)
# T2 sequence (P14262 32-329 limits assumed): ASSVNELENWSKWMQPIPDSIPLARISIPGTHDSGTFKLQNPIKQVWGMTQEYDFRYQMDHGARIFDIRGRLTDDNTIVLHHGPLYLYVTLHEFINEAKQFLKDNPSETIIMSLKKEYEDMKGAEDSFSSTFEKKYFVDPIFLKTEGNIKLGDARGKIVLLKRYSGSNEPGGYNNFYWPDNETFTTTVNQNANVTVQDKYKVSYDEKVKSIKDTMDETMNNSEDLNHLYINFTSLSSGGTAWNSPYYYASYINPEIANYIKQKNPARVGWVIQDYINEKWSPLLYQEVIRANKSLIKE
# Description: as §1, §2, §3, §4
# isolated rat adipocytes = test: glucose transport assay (2-deoxy-D-[3H]glucose); assay type: cell-based
# Description: (§5) Glucose transport was determined as described in “Müller, G. et al., (1994) J. Cell Biol. 126: 1267-1276” by incubation of 10,000-20,000 washed adipocytes with 2-deoxy-D[2,6-^3H]glucose at 50 μM final conc. (0.33 μCi/ml) in 50-μl portions for 20 min at 37° C. in the absence or presence of 20 μM cytochalasin B.
# (§6) Table 3: Isolated rat adipocytes were incubated in the presence of methyl-β-cyclodextrin (m-β-CD, 10 mM, 50 min), CBDP (300 μM, electroporation, followed by washing and subsequent incubation for 30 min), PIG41 (10 μM, 15 min), sodium orthovanadate (1 mM, 15 min), trypsin (10 μg/ml, 15 min followed by treatment with 0.5 M NaCl and subsequent washing) and N-ethylmaleimide (1 mM, 5 min followed by addition of DTT). After addition of GPI-2350 (50 μM final conc.) to one half of the adipocyte suspension and further incubation (60 min, 37° C.), portions of the cells were assayed for 5′-Nuc activity in the isolated IcDIGs. The increase in 5′-Nuc during the basal incubation was set at 100 arb. units. Other portions of the cells (after 15 min incubation) were assayed for glucose transport which was set at 100 arb. units for the basal incubation. Means+SD of at least 3 independent cell incubations with activity measurements in triplicate each are given.
# (§7) FIG. 8: Effect of GPI-2350 on the glimepiride/insulin-induced metabolic activity. Isolated rat adipocytes were treated (5 min, 37° C.) without or with GPI-2350 (Panel A, 50 μM; Panel B, increasing conc.; Panel C, 5 μM, 50 μM) and then incubated (15 min, 37° C.) in the absence or presence of insulin (Ins, 10 nM) or glimepiride (Gli, 20 μM or increasing conc.) as indicated. The adipocytes were then assayed for glucose transport and isoproterenol-induced lipolysis. The activity is given relative to the absence of GPI-2350 in the control reaction (Panels A, basal) or in the insulin- and glimepiride-stimulated state (Panels B and C, set at 100). Means+SD of at least 5 independent cell incubations with activity measurements in triplicate each are given.
# [1] = system: 5′-Nuc in isolated rat adipocytes; test: 5′-Nuc translocation to lcDIGs induced by insulin-mimetic stimuli; assay type: cell-based
# Description: as §6
# [2] = system: patients with type 2 diabetes; conditions: cited from earlier work
# [3] = system: glucose transport, rat adipocytes; test: Glucose transport in rat adipocytes; assay type: cell-based; conditions: for Glucose Transport: basal set at 100; for glucose transport (in words): insulin-mimetic stimuli
# Description: as §5
# Subsequently, we studied whether the differential effects of GPI-PLC inhibition on IRS-1 tyrosine phosphorylation in response to insulin and glimepiride is reflected in their metabolic activity in insulin target cells. For this, isolated rat adipocytes were pretreated with GPI-2350 prior to challenge with either stimulus, and then assayed for glucose transport and isoproterenol-induced lipolysis (FIG. 8). […] These differential effects of GPI-PLC inhibition were confirmed by analysis of the effect of GPI-2350 on the inhibition of isoproterenol-induced lipolysis by glimepiride and insulin when measured as release of NBD-FA instead of glycerol from rat adipocytes prelabeled with this fluorescent fatty acid derivative (FIG. 9).
# as §6, §7
# 5'-Nuc, rat adipocytes = test: 5'-Nuc translocation to lcDIGs induced by insulin-mimetic stimuli; assay type: cell-based; conditions: for Increase in 5′-Nuc at lcDIGs: basal set at 100
# Source text: Finally, the involvement was investigated of the GPI-PLC in signaling pathways of insulin-mimetic stimuli other than glimepiride, which are either dependent on or independent of the redistribution of GPI-proteins within DIGs. […] This is in agreement with their modes of action, the well-known inhibition of insulin receptor and IRS-1 dephosphorylation by the tyrosine phosphatase inhibitor, vanadate and the direct stimulation of pp59^Lyn and IRS-1 tyrosine phosphorylation by the CBDP.
# as §6
# [4] = +GPI-2350 (50 μM final conc., 15 min)
# [5] = +GPI-2350 (50 μM final conc., 60 min)
compound,measurement,setting,value
"CCCCCCCCCCCCP(=O)(O)O[C@H]1[C@H](O)[C@@H](O)[C@H](O)[C@@H](O)[C@@H]1F [GPI-1793, 2-deoxy-2-fluoro-scyllo-inositol-1-O-dodecyl-phosphonic acid]",effect on the adipocyte GPI-PLC,rat adipocyte GPI-PLC,moderate
"CCCCCCCCCCCCP(=O)(OC)O[C@@H]1[C@H](O)[C@H](O)[C@@H](O)[C@H](O)[C@H]1O (stereo partly shown) [GPI-2349, myo-inositol-1-O-dodecylphosphonic acid methylester]",effect on the adipocyte GPI-PLC,rat adipocyte GPI-PLC,very moderate
same,IC50,"GPI-PLC (T. brucei); IC50, Table 1, inhibitor 0.05 μM-1 mM",310 to 390 µM
same,inhibition at 1000 µM,GPI-PLC (T. brucei); read-out: inhibition % at 1 mM,66%
same,inhibition at 1000 µM,PI-PLC (B. cereus),24%
CCN1C(=O)C=CC1=O [N-ethylmaleimide],Glucose Transport (basal set at 100 arb. units),isolated rat adipocytes; [4],288 + 40 arb. units
same,Glucose Transport (basal set at 100 arb. units),isolated rat adipocytes; −GPI-2350,308 + 33 arb. units
same,Increase in 5′-Nuc at lcDIGs (basal set at 100 arb. units),[1]; [5],319 + 52 arb. units
same,Increase in 5′-Nuc at lcDIGs (basal set at 100 arb. units),[1]; −GPI-2350,292 + 60 arb. units
CCC1=C(C)CN(C(=O)NCCc2ccc(S(=O)(=O)NC(=O)N[C@H]3CC[C@H](C)CC3)cc2)C1=O [glimepiride],effects vs. gliclazide,[2]; 14-week study,no differences between their effects
same,rate of blood glucose reduction vs. glipizide,[2]; first few weeks of treatment,more rapidly than glipizide
same,effects on cardiovascular variables,"[2]; human, in vivo",fewer and less severe effects on cardiovascular variables than glibenclamide
same,"pharmacokinetics in elderly, renal or liver disease","[2]; human, in vivo",mainly unaltered
same,efficacy of glimepiride plus insulin,"[2]; secondary sulphonylurea failure, fasting glucose target ≦7.8 mmol/L",as effective as insulin plus placebo
[Na+].[Na+].[Na+].[O]=[V]([O-])([O-])[O-] [sodium orthovanadate],Glucose Transport (basal set at 100 arb. units),isolated rat adipocytes; [4],673 + 45 arb. units
same,Glucose Transport (basal set at 100 arb. units),isolated rat adipocytes; −GPI-2350,707 + 51 arb. units
same,Increase in 5′-Nuc at lcDIGs (basal set at 100 arb. units),[1]; [5],105 + 34 arb. units
same,Increase in 5′-Nuc at lcDIGs (basal set at 100 arb. units),[1]; −GPI-2350,93 + 38 arb. units
same,Glucose Transport,[3]; +GPI-2350 (50 μM),673 + 45 arb. units
same,glucose transport (in words),[3],stimulated glucose transport
same,Glucose Transport,[3]; −GPI-2350,707 + 51 arb. units
same,5'-Nuc at lcDIGs (in words),"5'-Nuc, rat adipocytes",without concomitant induction of 5′-Nuc translocation to IcDIGs
same,Increase in 5′-Nuc at lcDIGs,"5'-Nuc, rat adipocytes; +GPI-2350 (50 μM)",105 + 34 arb. units
same,Increase in 5′-Nuc at lcDIGs,"5'-Nuc, rat adipocytes; −GPI-2350",93 + 38 arb. units
methyl-β-cyclodextrin [m-β-CD] [listing 1 of 2 here],Glucose Transport (basal set at 100 arb. units),isolated rat adipocytes; [4],249 + 18 arb. units
same,Glucose Transport (basal set at 100 arb. units),isolated rat adipocytes; −GPI-2350,289 + 13 arb. units
same,Increase in 5′-Nuc at lcDIGs (basal set at 100 arb. units),[1]; [5],539 + 104 arb. units
same,Increase in 5′-Nuc at lcDIGs (basal set at 100 arb. units),[1]; −GPI-2350,595 + 128 arb. units
methyl-β-cyclodextrin [m-β-CD] [listing 2 of 2 here],Glucose Transport,[3]; +GPI-2350 (50 μM),249 + 18 arb. units
same,glucose transport (in words),[3],glucose transport activation
same,Glucose Transport,[3]; −GPI-2350,289 + 13 arb. units
same,5'-Nuc at lcDIGs (in words),"5'-Nuc, rat adipocytes",pronounced increases
same,Increase in 5′-Nuc at lcDIGs,"5'-Nuc, rat adipocytes; +GPI-2350 (50 μM)",539 + 104 arb. units
same,Increase in 5′-Nuc at lcDIGs,"5'-Nuc, rat adipocytes; −GPI-2350",595 + 128 arb. units
